Results reported in patent publication US6399355B1 (priority 1995, dated 2002).

System: HIV-1
Assay type: cell-based
Settings: for Inhibition Ratio (Number of viral particles/ml in control)/(Number with drug added): 1 μg/ml test compound mixed with HIV-1 (10^5 infectious units) at 37° C. for 2 hours, cells cultured six days; for viral inactivation (in words): at these concentrations (1 μg/ml)
Procedure: HIV-1 (10^5 infectious units) was mixed with 1 μg/ml of test compound at 37° C. for 2 hours. Test cells were innoculated with the mixture for two hours. The cells were then washed three times with PBS and cultured for six days.

Substance | Inhibition Ratio (Number of viral particles/ml in control)/(Number with drug added) | viral inactivation (in words)
Dextran sulfate | 1 | do not show significant activation
pentosan sulfate [Pentosan Sultate] | 1 | do not show significant activation
